{"source": "patent EP0417637A2", "about": "“Use of dopamine autoreceptor agonists in the treatment of drug dependency” (BOEHRINGER INGELHEIM KG, priority 1989, dated 1991)", "key": {"[1]": {"tested_on": "Affen", "assay": "Test 1: intravenous self-administration in monkeys experienced with sodium methohexital and saline", "conditions": "for Anzahl der Selbstinjektionen: average values, 3 monkeys, sessions of 130 min"}, "[2]": {"assay": "Extensive animal tests on abuse potential (no method given)", "assay_type": "in vivo", "excerpt": "Das ist für die Therapie von großer Bedeutung."}, "[3]": {"tested_on": "Affen", "assay": "Test 2: intravenous self-administration in monkeys receiving cocaine infusions (analogous to Test 1)", "conditions": "BHT 920 0,001, 0,003 and 0,01 mg/kg/Injektion or cocaine; 3 monkeys, each dose available for 25 min or 20 infusions"}, "[4]": {"tested_on": "drogenabhängigen Affen", "assay": "Test 3: effect of BHT 920 on cocaine or alfentanil self-administration in drug-dependent monkeys", "assay_type": "in vivo", "method": "Nach Durchführung des Tests Nr. […] In weiteren analogen Versuchen (siehe beiliegende graphische Darstellungen für Affe 1, Affe 2 und Affe 3) wurde den drogenabhängigen Affen BHT 920 in 2 Dosen (0,01 und 0,1 mg/kg/Injektion) gleichzeitig zu steigenden Dosen von Kokain (2 Tiere) beziehungsweise Alfentanil (1 Tier) angeboten. […] Auch sehr hohe Dosen der suchterzeugenden Droge konnten diese Wirkung von BHT 920 nicht aufheben. Aufgrund von Verhaltensbeobachtungen während der oben beschriebenen Tests kann gesagt werden, daß die hemmende Wirkung von BHT 920 nicht durch eine allgemeine Sedation erklärt werden kann. Daraus kann geschlossen werden, daß die Verabreichung von BHT 920 das Bedürfnis nach Kokain mindert und die psychische Abhängigkeit von der Droge durchbricht."}, "[5]": {"tested_on": "Affen", "conditions": "in vivo"}}, "note": "Read-outs that look alike come from different tables or passages of the source.", "data": [{"smiles": "C=CCN1CCc2nc(N)sc2CC1", "note": "[BHT 920, 6-Allyl-2-amino-5,6,7,8-tetrahydro-4H-thiazolo[4,5-d]azepin]", "values": [{"measurement": "Anzahl der Selbstinjektionen", "setting": "[1]; 0,01 mg BHT 920/kg/Injektion i.v.", "result": 10}, {"measurement": "Anzahl der Selbstinjektionen", "setting": "[1]; 0,05 mg BHT 920/kg/Injektion i.v.", "result": 18}, {"measurement": "Anzahl der Selbstinjektionen", "setting": "[1]; 0,0001 mg BHT 920/kg/Injektion i.v.", "result": 21}, {"measurement": "Anzahl der Selbstinjektionen", "setting": "[1]; 0,001 mg BHT 920/kg/Injektion i.v.", "result": 19}, {"measurement": "Reinforcement", "setting": "[1]; at the doses used", "result": "kein Reinforcement"}, {"measurement": "Anzahl der genommenen Injektionen der Testsubstanz", "setting": "[1]; four doses, each tested twice in each monkey, compared with saline and methohexital", "result": "nicht höher als die Anzahl der genommenen Injektionen von Kochsalzlösung"}, {"measurement": "Mißbrauchspotential", "setting": "[2]", "result": "kein Mißbrauchspotential"}, {"measurement": "Reaktionshäufigkeit", "setting": "[3]", "result": "in dem Bereich lag, der auch bei Kochsalzlösung beobachtet wurde"}, {"measurement": "Kokain - beziehungsweise Alfentanil - Selbstadministrationsrate", "setting": "[4]; BHT 920 high dose 0,1 mg/kg/Injektion given together with rising doses of cocaine (2 animals) or alfentanil (1 animal)", "result": "auf Null sinken"}, {"measurement": "Kokain - beziehungsweise Alfentanil - Selbstadministrationsrate", "setting": "[4]; BHT 920 lower dose 0,01 mg/kg/Injektion given together with rising doses of cocaine (2 animals) or alfentanil (1 animal)", "result": "deutlichen Abnahme"}, {"measurement": "durch Kokain verursachte Reaktionshäufigkeit", "setting": "[4]; session following administration of BHT 920, in 2 of 3 animals, compared with cocaine in Test 2", "result": "wesentlich unter der in Test 2 für Kokain beobachtete Reaktionshäufigkeit"}]}, {"smiles": "COC(=O)[C@H]1[C@@H](OC(=O)c2ccccc2)C[C@@H]2CC[C@H]1N2C", "note": "[Kokain]", "values": [{"measurement": "Reaktionshäufigkeit", "setting": "[5]", "result": "dosenabhängige Erhöhung der Reaktionshäufigkeit"}]}, {"smiles": "CCCN[C@H]1CCc2nc(N)sc2C1", "note": "[SND 919, (S)-2-Amino-4,5,6,7-tetrahydro-6-n-propylamino-benzothiazol]", "values": [{"measurement": "Mißbrauchspotential", "setting": "[2]", "result": "kein Mißbrauchspotential"}]}]}
